According to PubChem BioAssay (NCI):
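Briefly, cells in 96-well plates were exposed to five compound concentrations for 48 h, and endpoints were estimated by linear interpolation. The concentration for full growth arrest is given as TGI.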

Legend:
Assay in all cases: NCI-60 cell line screen, 48 h
[1] = test system: 786-0 renal
[2] = test system: A498 renal
[3] = test system: A549 NSCLC
[4] = test system: ACHN renal
[5] = test system: CAKI-1 renal
[6] = test system: CCRF-CEM leukemia
[7] = test system: COLO 205 colon
[8] = test system: DLD-1 colon
[9] = test system: DMS 114 small cell lung
[10] = test system: DMS 273 small cell lung
[11] = test system: EKVX NSCLC
[12] = test system: HCT-116 colon
[13] = test system: HCT-15 colon
[14] = test system: HOP-18 NSCLC
[15] = test system: HOP-62 NSCLC
[16] = test system: HOP-92 NSCLC
[17] = test system: HT29 colon
[18] = test system: IGROV1 ovarian
[19] = test system: K-562 leukemia
[20] = test system: KM12 colon
[21] = test system: KM20L2 colon
[22] = test system: LOX IMVI melanoma
[23] = test system: M19-MEL melanoma
[24] = test system: MALME-3M melanoma
[25] = test system: NCI-H23 lung
[26] = test system: NCI-H460 lung
[27] = test system: OVCAR-3 ovarian
[28] = test system: OVCAR-4 ovarian
[29] = test system: OVCAR-5 ovarian
[30] = test system: OVCAR-8 ovarian
[31] = test system: RPMI-8226 leukemia
[32] = test system: RXF 393 renal
[33] = test system: SF-268 CNS
[34] = test system: SF-295 CNS
[35] = test system: SF-539 CNS
[36] = test system: SK-MEL-2 melanoma
[37] = test system: SK-MEL-28 melanoma
[38] = test system: SK-MEL-5 melanoma
[39] = test system: SN12C renal
[40] = test system: SNB-19 CNS
[41] = test system: SNB-75 CNS
[42] = test system: SNB-78 CNS
[43] = test system: SR leukemia
[44] = test system: SW-620 colon
[45] = test system: TK-10 renal
[46] = test system: U251 CNS
[47] = test system: UACC-257 melanoma
[48] = test system: UACC-62 melanoma
[49] = test system: XF 498 CNS
[50] = test system: HCC-2998 colon
[51] = test system: HL-60(TB) leukemia
[52] = test system: M14 melanoma
[53] = test system: MOLT-4 leukemia
[54] = test system: NCI-H226 lung
[55] = test system: NCI-H522 lung
[56] = test system: SK-OV-3 ovarian
[57] = test system: UO-31 renal

Measured: TGI

COc1ccc(C(=O)NCCC2=CCCCC2)cc1
not listed: [50] | [51] | [52] | [53] | [54] | [55] | [56] | [57]
> 100 µM: all other assays above

C1OC1C1CO1 (stereo not drawn)
64.2 µM: [51]
not listed: [2] | [4] | [26]
> 100 µM: all other assays above
